SMILES strings stand for the structures. A value given as a limit tells only on which side of the number the result lay.

Data on 2 molecules can be found in publication PMC7270110, “Labeled oxytocin administered via the intranasal route reaches the brain in rhesus macaques” (Nature Communications, 2020).

The conditions of data set [1]: humans; 24 IU OT (not labelled) intranasally; 75 minutes post-administration; radioimmunoassay; ref Striepens et al., Sci Rep 2013; cited from earlier work. How it is done:
page 8: 4. It is surprising that no CSF d5 OT was detected at 60 or 120 minutes in CSF after IN administration. […] In our previous study (Lee et al., Mol Psychiatry 2018), after IN administration, CSF d5OT concentration at 60 minutes was quantified in 4 monkeys as follows: 11.28, 15.99, 67.65 and 221.62 pg/ml. In this previous study, the limit of quantification (LOQ) for d5OT was 10 pg/ml. The LOQ of d5OT in the present study was 100 pg/ml and the method dete ...

A short description of data set [2]: Brain tissue concentration of administered d5OT by LC-MS/MS (terminal experiment). Format: in vivo, rhesus macaques (Macaca mulatta). More on the design: key to BRAIN d5OT concentration: ND: not detected; +: detected but not quantifiable. As to conditions: for tissue level at time at 148 min: female. How it is done: Monkeys were divided into three groups, each with two monkeys; each group received the following in a terminal study at the 5th week: Group 1 (Monkeys ID# 1 and ID# 5) received 40 IU of d5OT IN, Group 2 received 80 IU of d5OT IN (Monkeys ID# 2 and ID# 4) and Group 3 received 80 IU of d5OT IV (Monkeys ID# 3 and ID# 6). Animals were perfused on average, 140 ± 7 (mean ± SD) min after d5OT administration (range = 135–149 min) (Table 4). Plasma and CSF were drawn just before administration of d5OT, at the midpoint between d5OT administration and perfusion (~60 min post-d5OT administration), and just before perfusion.
Brain tissue distribution of d5OT, as well as the endogenous concentrations of OT (d0OT), were measured in the following 12 brain regions: cerebellum, brainstem, striatum, amygdala, thalamus, visual cortex, insular cortex, hypothalamus, hippocampus, mPFC (Brodmann areas 32,25,24), dPFC (Brodmann areas 46,9,10), and OFC (Brodmann areas 14,13,12) (Tables 1, 2 and 3).
Brain tissue sample preparation: Samples (~1.5 mg per sample) were individually weighed and placed into 12 mm × 75 mm glass tubes containing 1.5 ml ice-cold 1 M acetic acid and 30 µl of OT-d10 internal standard. Tissues were homogenized on ice and the resulting homogenates were poured into individual 15 ml polystyrene tubes. The original glass tube was rinsed with 1 ml acetonitrile, and this rinse was added to the appropriate 15 ml polystyrene tube containing the homogenate. After all homogenizations were complete, 3 ml acetonitrile was added to each tube and extraction proceeded, as described for the plasma and CSF samples.
LC–MS/MS instrument parameters: Microtiter plates were prepared, as described above, and loaded onto a SIL-30ACMP autosampler set at 4 °C (Shimadzu). Forty microliters of each standard, QC or sample were injected onto an ACE Excel 2 C18-PFP 50 mm × 2.1 mm column (Advanced Chromatography Technologies, LTD, Aberdeen, Scotland) at 50 °C using reversed-phase chromatography. Mobile phase A was 0.1% formic acid in water and mobile phase B was 0.1% formic acid in ACN. The LC time gradient was created using two Nexera LC-30AD pumps (Shimadzu) running at 0.5 ml/min. Chromatography for serum and CSF samples began at 10% B and ended at 16% B at 3.6 min. One minute at 60% B was then required to wash the column, and the pumps re-equilibrated at 10% B for an additional 1.7 min (total run time ~6 min). Outside of the 1.55–3.55 min window during which OT eluted, a divert valve sent the LC effluent to waste.
Heated electrospray […] in positive mode, with scheduled multiple reaction monitoring (MRM) on a Shimadzu LCMS-8050, was used for detection of OT. The interface temperature was 270 °C and heat block temperature was 170 °C. Gas was supplied by a Peak Genius 1051 nitrogen and air generator (Peak Scientific, Inchinnan, UK). Nitrogen gas was used for nebulizing (1 L/min) and drying (8.2 L/min), while air was used for heating (7.8 L/min). A capillary B needle was used in the interface. Needle protrusion was set to 1.25 mm and probe distance was set to 1.0 mm; both were determined empirically. Argon (Airgas, Radnor, PA) was used for the collision-induced dissociation at 330 kPa. The MS/MS conditions for OT were optimized using the automated MRM optimization procedure in LabSolutions software (Shimadzu). We collected two MRM transitions each, for d0OT (1007.40 > 723.40 and 1007.40 > 285.30), d5OT (1012.00 > 723.40 and 1012.00 > 290.35), and d10OT (1017.70 > 723.35 and 1017.70 > 295.40); the first transition listed in each case was used for quantitation, while the second was used as a reference ion. Retention times for d0OT, d5OT, and d10OT were 3.290, 3.270, and 3.253 min, respectively.
The sensitivities of each assay within the method were determined by the lowest and highest concentration calibrators in the calibration curve. The lower limit of quantitation (LLOQ) for d0OT was 10 pg/ml (4 pg/col); the LLOQ for d5OT was 100 pg/ml (40 pg/col). […]

As to `CC[C@H](C)[C@@H]1NC(=O)[C@H](Cc2ccc(O)cc2)NC(=O)[C@@H](N)CSSC[C@@H](C(=O)N2CCC[C@H]2C(=O)N[C@@H](CC(C)C)C(=O)NCC(N)=O)NC(=O)[C@H](CC(N)=O)NC(=O)[C@H](CCC(N)=O)NC1=O` [OT, oxytocin], the “CSF OT concentration” value in data set [1] is listed as “approximately 30 pg/ml”.
`CC[C@H](C)[C@@H]1NC(=O)[C@H](Cc2ccc(O)cc2)NC(=O)[C@@H](N)CSSC[C@@H](C(=O)N2CCC[C@H]2C(=O)N[C@@H](CC(C)C)C(=O)NCC(N)=O)NC(=O)[C@H](CC(N)=O)NC(=O)[C@H](CCC(N)=O)NC1=O` [d5OT]: the “Brain penetrance of d5OT in the striatum, % of the dose delivered IN” value in data set [2] (40 IU IN, assuming ~20% of delivered volume reaches upper nasal cavity) is given as roughly 0.03%. Moreover, the “BRAIN d5OT concentration” value in data set [2] (Amygdala, 40 IU IN, monkey #5 (F), perfused 138 min post-dose, LC-MS/MS) is “+”; in data set [2] (Brainstem, 40 IU IN, monkey #1 (F), perfused 148 min post-dose, LC-MS/MS), “+”; in data set [2] (Brainstem, 80 IU IN, monkey #2 (M), 136 min post-dose, molarity calculated for extracellular fluid volume (20% of brain volume)) it was less than 1 nM; in data set [2] (Brainstem, 80 IU IN, monkey #2 (M), perfused 136 min post-dose, LC-MS/MS), 0.14 pg/mg; in data set [2] (Brainstem, 80 IU IN, monkey #4 (M), 135 min post-dose, molarity calculated for extracellular fluid volume (20% of brain volume)), 1 nM; in data set [2] (Brainstem, 80 IU IV, monkey #6 (F), perfused 135 min post-dose, LC-MS/MS), “+”. Besides, the “BRAIN d5OT concentration” value in data set [2] (Cerebellum, 80 IU IN, monkey #4 (M), perfused 135 min post-dose, LC-MS/MS) is on record as “+”; in data set [2] (OFC, 80 IU IN, monkey #2 (M), 136 min post-dose, molarity calculated for extracellular fluid volume (20% of brain volume)) it was 11 nM; in data set [2] (Striatum, 40 IU IN, monkey #1 (F), 148 min post-dose, molarity calculated for extracellular fluid volume (20% of brain volume)) it was 13 nM; in data set [2] (Striatum, 40 IU IN, monkey #5 (F), perfused 138 min post-dose, LC-MS/MS) it was “+”; in data set [2] (Thalamus, 40 IU IN, monkey #1 (F), 148 min post-dose, molarity calculated for extracellular fluid volume (20% of brain volume)), 1 nM; in data set [2] (dPFC, 40 IU IN, monkey #5 (F), perfused 138 min post-dose, LC-MS/MS), “+”. The “BRAIN d5OT concentration” value is listed as “+” in data set [2] (dPFC, 80 IU IN, monkey #4 (M), perfused 135 min post-dose, LC-MS/MS); “+” in data set [2] (dPFC, 80 IU IV, monkey #6 (F), perfused 135 min post-dose, LC-MS/MS); “+” in data set [2] (mPFC, 80 IU IV, monkey #6 (F), perfused 135 min post-dose, LC-MS/MS). Moreover, the “d5OT concentration in striatum (highest), comparable to that in the OFC” value in data set [2] (after IN d5OT, Table 1) is given as ~ 10 nM. In addition, the tissue level at time at 148 min in data set [2] (rhesus monkey, brain (striatum), Striatum, 40 IU IN, monkey #1 (F), perfused 148 min post-dose, LC-MS/MS) was 2.41 ng/g; in data set [2] (rhesus monkey, brain (thalamus), Thalamus, 40 IU IN, monkey #1 (F), perfused 148 min post-dose, LC-MS/MS) it was 0.23 ng/g. Moreover, in data set [2] (male, rhesus monkey, brain (OFC), OFC, 80 IU IN, monkey #2 (M), perfused 136 min post-dose, LC-MS/MS), the tissue level at time at 136 min was determined as 2.04 ng/g. Moreover, in data set [2] (male, rhesus monkey, brain (brainstem), Brainstem, 80 IU IN, monkey #4 (M), perfused 135 min post-dose, LC-MS/MS), the tissue level at time at 2.25 h came to 0.24 ng/g. The “Brain concentrations of d5OT after IN delivery” value in data set [2] (on the order of, Table 1) is reported as no less than 1 nM.
